The values that follow come from US20260256751A1, “COMBINATION OF BETA-2-ADRENERGIC RECEPTOR AGONISTS AND GLP-1 RECEPTOR AGONISTS FOR USE IN TREATING HYPERGLYCAEMIA” (ATROGI AB, priority 2023, published 2026).

In one assay the target is T1, β2-adrenergic receptor (Rattus norvegicus, UniProt P10608).
T1 construct: L6-myoblasts were grown in Dulbecco's Modified Eagle's Medium (DMEM); endogenous in cells; host or cells: L6 myoblasts differentiated into myotubes
Nature of the assay: Glucose uptake in the presence of a selective β2-adrenergic receptor inhibitor (Biological Example 1). The following applies: L6-myotubes; Compound A (2HCl salt) 1×10^−5 M in the presence of ICI-118551; FIG. 1. The class given is cell-based.

Assay [1] deals with differentiated L6-myotubes. To be noted: as described in WO 2019/053427, Biological Example 2 therein; cited from earlier work.
The subject of assay [2] is male C57Bl/6N mice fed with high-fat, high-sucrose diet. Nature of the assay: Combination of Compound A and liraglutide in high-fat, high-sucrose diet fed mice (Biological Example 2). Format: in vivo. To be noted: Compound A hemi-tartrate 1 mg/kg with liraglutide 0.1 mg/kg, subcutaneously, daily for 2 weeks; compared with liraglutide; FIGS. 2-5. As to the method: 2.5 Months old male C57Bl/6N mice were grouped caged (4-5 mice per cage), kept at 30° C. and fed with high-fat, high-sucrose diet (45% fat) for 5.5 months. The mice were divided into four groups (2-3 mice per cage) according to their fasting blood glucose levels, glucose tolerance, body weight, body fat and lean mass, and treated daily for 2 weeks, subcutaneously with either vehicle, liraglutide (0.1 mg/kg), Compound A (1 mg/kg), or a mixture of liraglutide (0.1 mg/kg) and Compound A (1 mg/kg). The mice were fasted for 5 h and fasting blood glucose and fasting serum insulin levels were recorded. Glucose (2.5 g/kg lean mass) was injected ip and glucose levels were recorded after 15, 30, 60, 90 and 120 min. The results were used to calculate HOMA-IR (fasting blood glucose (mM)×fasting insulin (μIU/mL)/22.5) and glucose tolerance (area under the curves 0-120 min over the 5.5 mM blood glucose level).

In assay [3] the test system is differentiated L6-myotubes. To be noted: as described in WO 2019/053427, Biological Example 1 therein; cited from earlier work.

T1 sequence (P10608 whole entry): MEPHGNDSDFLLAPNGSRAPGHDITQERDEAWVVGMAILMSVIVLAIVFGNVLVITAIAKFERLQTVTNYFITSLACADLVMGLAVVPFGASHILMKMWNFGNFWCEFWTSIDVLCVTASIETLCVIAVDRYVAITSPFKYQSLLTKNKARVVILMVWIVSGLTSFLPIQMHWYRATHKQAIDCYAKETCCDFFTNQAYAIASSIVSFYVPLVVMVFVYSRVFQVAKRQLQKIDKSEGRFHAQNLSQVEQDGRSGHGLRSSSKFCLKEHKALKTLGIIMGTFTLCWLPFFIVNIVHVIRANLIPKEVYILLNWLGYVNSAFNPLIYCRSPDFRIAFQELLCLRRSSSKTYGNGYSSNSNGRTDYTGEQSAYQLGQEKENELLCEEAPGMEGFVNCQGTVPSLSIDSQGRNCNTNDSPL
Experimental for β2-adrenergic receptor: L6-myoblasts were grown in Dulbecco's Modified Eagle's Medium (DMEM) containing 1 g/L glucose supplemented with 10% fetal bovine serum (FBS), 2 mM L-glutamine, 50 U/mL penicillin, 50 g/mL streptomycin and 10 mM HEPES. Cells were plated at 1x 10^5 cells per mL in 24-well plates. After reaching 90% confluence the cells were grown in medium containing 2% FBS for 7 days where upon cells differentiated into myotubes. […] After 1 h 40 min the cells were washed with warm, glucose free medium twice and another portion of agonist was added to the glucose free medium. After another 20 min of incubation the cells were exposed to 50 nM ^3H-2-deoxyglucose for 10 min before washed in ice cold glucose free medium three times and lysed in 400 µl/well 0.2 M NaOH for 1 h at 60° C.

`CC(C)(C)NC[C@H](O)c1cncc(F)c1` [Compound A, (R)-2-(tert-Butylamino)-1-(5-fluoropyridin-3-yl)ethan-1-ol]: on β2-adrenergic receptor, the “receptor mediating the glucose uptake promoted by the compound” value is “mediated through the β2-adrenergic receptor”. Besides, the cAMP levels induced result in assay [1] is on record as “without inducing significant levels of cAMP”. The “effects on glucose homeostasis (glycemia, glucose tolerance and insulin sensitivity)” value in assay [2] is “additional positive effects”. Further, the glucose uptake entry in assay [3] is on record as “significant glucose uptake”.
